# Reference: article PMC9822497, “Identification of Polyphenol Derivatives as Novel SARS-CoV-2 and DENV Non-Nucleoside RdRp Inhibitors” (Molecules, 2022)
# Where two headings read alike, the source gives them in different places.
# What was measured:
# [1] = target: SARS-CoV-2 RdRp complex nsp12/nsp8/nsp7 (Severe acute respiratory syndrome coronavirus 2, UniProt P0DTD1); experiment: biochemical; settings: for inhibition at 50 µM: read-out: Inhibition Rate (%); for IC50: seven concentrations 0.4 to 100 μM, mean ± SD of two independent experiments, read-out: IC50 against SARS-CoV-2 RdRp
# DENV = test system: DENV; design: method as in PMID 26574011, PMID 33160000; settings: cited from earlier work
# SARS-CoV-2 [2] = settings: cited from earlier work
# DENV2 = test system: DENV2; design: method as in PMID 34424050; settings: DENV2 in vitro; cited from earlier work
# DENV3 [3] = test system: DENV3; design: method as in PMID 34424050; settings: DENV3 in vitro; cited from earlier work
# SARS-CoV-2 [4] = experiment: microbe, parasite or virus in culture; format: cell-based; settings: for EC50: Severe acute respiratory syndrome coronavirus 2, Vero C1008
# in vitro [5] = settings: African green monkey
# [6] = target: Dengue virus RdRp (DENV NS5) (Dengue virus type 3, UniProt Q6YMS4); experiment: Fluorescent plate DENV RdRp assay; format: biochemical; settings: for IC50: purified recombinant Dengue virus RdRp, average ± SD of 2 independent experiments; for Detectable inhibition towards DENV RdRp: screen of Table 1 compounds
# Procedure: To further exploit pan-RNA virus inhibition of the compounds in Table 1, the compounds were evaluated as potential inhibitors of the RdRp domain of DENV NS5. We used a fluorescent-based assay to screen the compounds from Table 1 as potential DENV RdRp inhibitors.
# Expression and purification of recombinant Dengue virus NS5 has been described previously. Florescent plate assay based on poly rC RNA and the fluorescent dye PicoGreen was well established for screening inhibitors against Dengue virus RdRp activity. RdRp assays were performed in a 60 μL reaction mixture containing 1.5 μM DENV NS5, 1 µg poly rC, 100 μM GTP, various concentrations of compounds, 5% DMSO, 40 mM Tris–HCl (pH 7.0), 2 mM MnCl2, and 5 mM DTT. The reaction was incubated at 30 °C for 60 min and terminated with 10 mM EDTA after which 100 μL of 200-fold diluted fluorescent dye PicoGreen in TE buffer was added to each well and incubated for 5 min at room temperature. Microplate reader was used to quantitate the amount of dsRNA Fluorescence, under excitation and emission wavelengths of 480 and 520 nm, respectively. Dose-response data were analyzed by nonlinear regression using GraphPad Prism 9.2.0 software. The mean of IC50 values and standard deviation (SD) were determined from the results of two independent experiments.
# DENV3 [7] = experiment: DENV3 cell-based qRT-PCR antiviral assay in A549 cells; settings: for EC50 / Selective Index: DENV3/A549
# Procedure: The virus DENV3 clinical strain and A549 cells were used in the cell-based qRT-PCR antiviral assays. Evaluation of antiviral activity was performed as described previously. Briefly, cells infected by dengue virus in the presence of 5-fold serial dilutions of compounds were maintained for 72 h. Supernatant was collected and the virus yield was measured by Cells Direct One-step qRT-PCR kit (Thermo Fisher), according to manufacturer’s instructions. Dose-response data were analyzed by nonlinear regression using GraphPad Prism software. The toxicity of compounds was evaluated in standard MTS analysis without virus in A549 cell line. Graphpad Prism 9.2.0 was used to calculate EC50 (half maximal effective concentration) and CC50 (half cytotoxic concentration) values.
# in vitro [8] = settings: human
# [9] = preliminary screening, single concentration of 50 μM
# Sequence of Dengue virus RdRp (DENV NS5) (Q6YMS4 2491-3390 limits assumed): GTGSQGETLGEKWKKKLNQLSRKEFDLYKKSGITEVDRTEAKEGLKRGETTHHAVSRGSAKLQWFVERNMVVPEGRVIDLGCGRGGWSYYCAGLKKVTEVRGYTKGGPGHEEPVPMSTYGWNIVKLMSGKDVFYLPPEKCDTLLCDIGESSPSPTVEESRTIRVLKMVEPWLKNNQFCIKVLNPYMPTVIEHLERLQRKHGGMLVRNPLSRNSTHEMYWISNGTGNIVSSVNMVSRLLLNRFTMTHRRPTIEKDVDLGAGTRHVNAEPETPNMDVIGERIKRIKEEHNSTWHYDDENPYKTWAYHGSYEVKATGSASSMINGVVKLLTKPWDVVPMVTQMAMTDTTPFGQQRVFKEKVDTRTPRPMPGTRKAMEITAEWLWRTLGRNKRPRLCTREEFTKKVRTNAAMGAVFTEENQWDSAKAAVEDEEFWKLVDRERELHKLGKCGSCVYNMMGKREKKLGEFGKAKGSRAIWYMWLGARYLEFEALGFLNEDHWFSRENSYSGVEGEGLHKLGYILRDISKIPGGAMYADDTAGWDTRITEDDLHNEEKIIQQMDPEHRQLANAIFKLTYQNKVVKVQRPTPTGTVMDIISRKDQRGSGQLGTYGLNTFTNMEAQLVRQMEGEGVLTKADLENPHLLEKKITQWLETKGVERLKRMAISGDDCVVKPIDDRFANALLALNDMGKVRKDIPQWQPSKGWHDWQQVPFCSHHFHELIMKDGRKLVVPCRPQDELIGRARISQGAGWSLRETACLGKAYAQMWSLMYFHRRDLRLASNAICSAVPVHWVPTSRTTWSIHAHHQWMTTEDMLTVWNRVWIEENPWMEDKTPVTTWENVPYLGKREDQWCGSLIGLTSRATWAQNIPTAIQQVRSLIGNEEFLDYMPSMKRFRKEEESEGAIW
compound,measurement,setting,value
CN(C(=O)C1CN(C(=O)c2cc(O)c(O)c(O)c2)CCN1S(=O)(=O)c1ccc(N)cc1)c1ccccc1 (centres unmarked) [DF-63],inhibition at 50 µM,[1],75%
same,melting point,,172 to 175 °C
O=C(NO)c1ncc(CS(=O)(=O)c2ccccc2)c(CO)c1O [DMB220],EC50,DENV,2.7 ± 0.6 µM
CC(C)(C)OC(=O)N1CCC2(CCN(C(=O)C3CN(C(=O)c4cc(O)c(O)c(O)c4)CCN3S(=O)(=O)c3ccc(N)cc3)C2)C1 (centres unmarked) [DF-71],inhibition at 50 µM,[1],70%
same,melting point,,192 to 195 °C
Nc1ccc(S(=O)(=O)N2CCN(C(=O)c3cc(O)c(O)c(O)c3)CC2C(=O)NCc2cccs2)cc1 (centres unmarked) [DF-68],inhibition at 50 µM,[1],73%
same,melting point,,213 to 216 °C
Bemnifosbuvir,EC90,SARS-CoV-2 [2],0.47 µM
same,EC50,DENV2,0.48 µM
same,EC50,DENV3 [3],0.77 µM
Nc1ccc(S(=O)(=O)N2CCN(C(=O)c3cc(O)c(O)c(O)c3)C(C(=O)NCc3ccco3)C2)cc1 (centres unmarked) [DF-36],Inhibition of RdRp activity at 10 μM (gel),[1],remained partially active
same,inhibition at 50 µM,[1],87%
same,melting point,,181 to 184 °C
Nc1ccc(S(=O)(=O)N2CCN(C(=O)c3cc(O)c(O)c(O)c3)CC2C(=O)NCc2cccc3ccccc23)cc1 (centres unmarked) [DF-67],inhibition at 50 µM,[1],83%
same,melting point,,189 to 192 °C
"CCC(CC)COC(=O)[C@H](C)N[P@](=O)(OC[C@H]1O[C@@](C#N)(c2ccc3c(N)ncnn23)[C@H](O)[C@@H]1O)Oc1ccccc1 [Remdesivir, reference compound]",EC50,SARS-CoV-2 [4],0.046 ± 0.0002 µM
same,CC50,in vitro [5],10.1 µM
COc1ccc(CNC(=O)C2CN(S(=O)(=O)c3ccc(N)cc3)CCN2C(=O)c2cc(O)c(O)c(O)c2)cc1 (centres unmarked) [DF-35],inhibition at 50 µM,[1],81%
same,melting point,,192 to 195 °C
Nc1ccc(S(=O)(=O)N2CCN(C(=O)c3cc(O)c(O)c(O)c3)CC2C(=O)NCc2ccc(-c3ccccc3)cc2)cc1 (centres unmarked) [DF-69],inhibition at 50 µM,[1],72%
same,melting point,,192 to 195 °C
"O=c1cc(-c2ccccc2)oc2cc(O)c(O)c(O)c12 [Baicalein, reference compound]",Inhibition of RdRp activity at 10 μM (gel),[1],remained partially active
same,Selective Index,SARS-CoV-2 [4],19.1
same,EC50,SARS-CoV-2 [4],4.5 µM
same,CC50,in vitro [5],86 µM
Nc1ccc(S(=O)(=O)N2CCN(C(=O)c3cc(O)c(O)c(O)c3)C(C(=O)NCc3ccc(-c4ccccc4)cc3)C2)cc1 (centres unmarked) [DF-47],Inhibition of RdRp activity at 10 μM (gel),[1],remained partially active
same,inhibition at 50 µM,[1]; [9],92%
same,IC50,[1],9.2 ± 1.1 µM
same,IC50,[6],14 ± 2.3 µM
same,Detectable inhibition towards DENV RdRp,[6],detectable inhibition
same,Antiviral activity against SARS-CoV-2 in vitro,SARS-CoV-2 [4],no significant antiviral activity
same,EC50,SARS-CoV-2 [4],> 100 µM
same,Inhibition of DENV3 in A549 cells,DENV3 [7],moderate inhibition
same,EC50,DENV3 [7],51.9 ± 26.3 µM
same,Selective Index,DENV3 [7],>1.9
same,melting point,,193 to 196 °C
same,CC50,in vitro [5],> 100 µM
same,CC50,in vitro [8],> 100 µM
CC(C)C(=O)OC[C@H]1O[C@@H](n2ccc(NO)nc2=O)[C@H](O)[C@@H]1O [Molnupiravir],EC50,SARS-CoV-2 [2]; nucleoside RdRp inhibitors,0.3 µM
N#Cc1ccc(S(=O)(=O)N2CCN(C(=O)c3cc(O)c(O)c(O)c3)C(C(=O)NCc3ccc(-c4ccccc4)cc3)C2)cc1 (centres unmarked) [DF-51],Inhibition of RdRp activity at 10 μM (gel),[1],remained partially active
same,inhibition at 50 µM,[1]; [9],90%
same,IC50,[1],22 ± 1.3 µM
same,IC50,[6],4.8 ± 0.7 µM
same,Detectable inhibition towards DENV RdRp,[6],detectable inhibition
same,Antiviral activity against SARS-CoV-2 in vitro,SARS-CoV-2 [4],no significant antiviral activity
same,EC50,SARS-CoV-2 [4],> 89 µM
same,Inhibition of DENV3 in A549 cells,DENV3 [7],moderate inhibition
same,EC50,DENV3 [7],21.5 ± 14.9 µM
same,Selective Index,DENV3 [7],>4.6
same,CC50,in vitro [5],> 100 µM
same,CC50,in vitro [8],> 100 µM
COc1ccc(CNC(=O)C2CN(C(=O)c3cc(O)c(O)c(O)c3)CCN2S(=O)(=O)c2ccc(N)cc2)cc1 (centres unmarked) [DF-64],inhibition at 50 µM,[1],80%
same,melting point,,202 to 205 °C
O=C(O)[C@H]1O[C@@H](Oc2cc3oc(-c4ccccc4)cc(=O)c3c(O)c2O)[C@H](O)[C@@H](O)[C@@H]1O [Baicalin],EC50,SARS-CoV-2 [2]; SARS-CoV-2 inhibitors,9 µM
Nc1ccc(S(=O)(=O)N2CCN(C(=O)c3cc(O)c(O)c(O)c3)CC2C(=O)Nc2ccccc2)cc1 (centres unmarked) [DF-57],inhibition at 50 µM,[1],85%
same,melting point,,173 to 176 °C
